Patent US10344060B2 (priority 2013, dated 2019)
Read-outs that look alike come from different tables or passages of the source.

How the values were obtained:
hNav1.7 = hNav1.7 (Homo sapiens, UniProt Q15858); assay: cell-based; type: cell-based; conditions: for IC50: PatchXpress, read-out: PX hNav1.7 Tonic IC50
hNav1.4 = hNav1.4 (Homo sapiens, UniProt P35499); assay: cell-based; type: cell-based; conditions: for IC50: PatchXpress, read-out: PX hNav1.4 Tonic IC50; for Nav1.4/Nav1.7: ratio of PX tonic IC50 values
Chain of hNav1.4 (P35499 whole entry): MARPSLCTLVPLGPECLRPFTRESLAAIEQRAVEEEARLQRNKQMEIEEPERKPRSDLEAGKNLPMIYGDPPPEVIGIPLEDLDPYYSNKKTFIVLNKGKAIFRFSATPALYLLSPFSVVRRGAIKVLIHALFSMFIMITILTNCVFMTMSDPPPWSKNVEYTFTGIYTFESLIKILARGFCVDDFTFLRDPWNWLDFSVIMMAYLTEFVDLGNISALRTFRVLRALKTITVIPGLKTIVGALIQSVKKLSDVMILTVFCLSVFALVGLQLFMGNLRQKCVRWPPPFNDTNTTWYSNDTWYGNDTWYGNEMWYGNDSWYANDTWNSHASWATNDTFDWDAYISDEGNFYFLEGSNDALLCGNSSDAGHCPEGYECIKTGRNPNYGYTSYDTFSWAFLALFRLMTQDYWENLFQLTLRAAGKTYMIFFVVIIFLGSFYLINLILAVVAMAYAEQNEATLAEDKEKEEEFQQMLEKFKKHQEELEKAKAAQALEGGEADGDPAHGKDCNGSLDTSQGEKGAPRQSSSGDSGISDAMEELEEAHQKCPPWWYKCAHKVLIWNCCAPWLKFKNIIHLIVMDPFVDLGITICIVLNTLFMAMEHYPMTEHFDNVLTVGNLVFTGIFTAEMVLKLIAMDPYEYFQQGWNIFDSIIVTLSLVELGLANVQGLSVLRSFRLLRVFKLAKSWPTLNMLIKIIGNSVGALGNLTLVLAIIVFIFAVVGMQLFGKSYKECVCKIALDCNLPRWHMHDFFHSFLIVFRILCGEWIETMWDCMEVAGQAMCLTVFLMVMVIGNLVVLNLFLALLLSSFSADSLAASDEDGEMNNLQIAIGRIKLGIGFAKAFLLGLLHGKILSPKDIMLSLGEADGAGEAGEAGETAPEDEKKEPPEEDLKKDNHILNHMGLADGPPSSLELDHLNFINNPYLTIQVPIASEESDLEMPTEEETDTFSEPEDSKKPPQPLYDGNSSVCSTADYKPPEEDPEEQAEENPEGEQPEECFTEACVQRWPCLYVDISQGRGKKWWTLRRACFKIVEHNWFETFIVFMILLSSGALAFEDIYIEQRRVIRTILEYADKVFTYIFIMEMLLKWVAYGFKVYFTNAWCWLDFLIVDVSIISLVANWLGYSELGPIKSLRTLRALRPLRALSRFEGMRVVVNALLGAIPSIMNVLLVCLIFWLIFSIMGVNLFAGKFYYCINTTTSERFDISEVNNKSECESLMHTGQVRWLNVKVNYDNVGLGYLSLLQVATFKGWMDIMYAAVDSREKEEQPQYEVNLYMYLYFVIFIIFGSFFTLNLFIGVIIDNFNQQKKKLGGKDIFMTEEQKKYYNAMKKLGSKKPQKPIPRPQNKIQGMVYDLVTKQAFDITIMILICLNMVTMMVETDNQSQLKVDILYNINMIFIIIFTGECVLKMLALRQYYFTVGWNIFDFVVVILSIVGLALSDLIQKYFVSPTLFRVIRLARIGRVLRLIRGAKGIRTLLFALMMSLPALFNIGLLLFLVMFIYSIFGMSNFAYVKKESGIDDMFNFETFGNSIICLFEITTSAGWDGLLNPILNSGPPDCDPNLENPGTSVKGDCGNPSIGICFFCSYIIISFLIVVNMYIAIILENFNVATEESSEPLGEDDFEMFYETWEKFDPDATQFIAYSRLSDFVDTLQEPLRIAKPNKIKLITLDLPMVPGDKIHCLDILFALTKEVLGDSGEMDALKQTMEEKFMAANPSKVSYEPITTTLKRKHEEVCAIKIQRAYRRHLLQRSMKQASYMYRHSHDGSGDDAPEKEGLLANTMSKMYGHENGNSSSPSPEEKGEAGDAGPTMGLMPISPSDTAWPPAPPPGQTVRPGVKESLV

Chain of hNav1.7 (Q15858 whole entry): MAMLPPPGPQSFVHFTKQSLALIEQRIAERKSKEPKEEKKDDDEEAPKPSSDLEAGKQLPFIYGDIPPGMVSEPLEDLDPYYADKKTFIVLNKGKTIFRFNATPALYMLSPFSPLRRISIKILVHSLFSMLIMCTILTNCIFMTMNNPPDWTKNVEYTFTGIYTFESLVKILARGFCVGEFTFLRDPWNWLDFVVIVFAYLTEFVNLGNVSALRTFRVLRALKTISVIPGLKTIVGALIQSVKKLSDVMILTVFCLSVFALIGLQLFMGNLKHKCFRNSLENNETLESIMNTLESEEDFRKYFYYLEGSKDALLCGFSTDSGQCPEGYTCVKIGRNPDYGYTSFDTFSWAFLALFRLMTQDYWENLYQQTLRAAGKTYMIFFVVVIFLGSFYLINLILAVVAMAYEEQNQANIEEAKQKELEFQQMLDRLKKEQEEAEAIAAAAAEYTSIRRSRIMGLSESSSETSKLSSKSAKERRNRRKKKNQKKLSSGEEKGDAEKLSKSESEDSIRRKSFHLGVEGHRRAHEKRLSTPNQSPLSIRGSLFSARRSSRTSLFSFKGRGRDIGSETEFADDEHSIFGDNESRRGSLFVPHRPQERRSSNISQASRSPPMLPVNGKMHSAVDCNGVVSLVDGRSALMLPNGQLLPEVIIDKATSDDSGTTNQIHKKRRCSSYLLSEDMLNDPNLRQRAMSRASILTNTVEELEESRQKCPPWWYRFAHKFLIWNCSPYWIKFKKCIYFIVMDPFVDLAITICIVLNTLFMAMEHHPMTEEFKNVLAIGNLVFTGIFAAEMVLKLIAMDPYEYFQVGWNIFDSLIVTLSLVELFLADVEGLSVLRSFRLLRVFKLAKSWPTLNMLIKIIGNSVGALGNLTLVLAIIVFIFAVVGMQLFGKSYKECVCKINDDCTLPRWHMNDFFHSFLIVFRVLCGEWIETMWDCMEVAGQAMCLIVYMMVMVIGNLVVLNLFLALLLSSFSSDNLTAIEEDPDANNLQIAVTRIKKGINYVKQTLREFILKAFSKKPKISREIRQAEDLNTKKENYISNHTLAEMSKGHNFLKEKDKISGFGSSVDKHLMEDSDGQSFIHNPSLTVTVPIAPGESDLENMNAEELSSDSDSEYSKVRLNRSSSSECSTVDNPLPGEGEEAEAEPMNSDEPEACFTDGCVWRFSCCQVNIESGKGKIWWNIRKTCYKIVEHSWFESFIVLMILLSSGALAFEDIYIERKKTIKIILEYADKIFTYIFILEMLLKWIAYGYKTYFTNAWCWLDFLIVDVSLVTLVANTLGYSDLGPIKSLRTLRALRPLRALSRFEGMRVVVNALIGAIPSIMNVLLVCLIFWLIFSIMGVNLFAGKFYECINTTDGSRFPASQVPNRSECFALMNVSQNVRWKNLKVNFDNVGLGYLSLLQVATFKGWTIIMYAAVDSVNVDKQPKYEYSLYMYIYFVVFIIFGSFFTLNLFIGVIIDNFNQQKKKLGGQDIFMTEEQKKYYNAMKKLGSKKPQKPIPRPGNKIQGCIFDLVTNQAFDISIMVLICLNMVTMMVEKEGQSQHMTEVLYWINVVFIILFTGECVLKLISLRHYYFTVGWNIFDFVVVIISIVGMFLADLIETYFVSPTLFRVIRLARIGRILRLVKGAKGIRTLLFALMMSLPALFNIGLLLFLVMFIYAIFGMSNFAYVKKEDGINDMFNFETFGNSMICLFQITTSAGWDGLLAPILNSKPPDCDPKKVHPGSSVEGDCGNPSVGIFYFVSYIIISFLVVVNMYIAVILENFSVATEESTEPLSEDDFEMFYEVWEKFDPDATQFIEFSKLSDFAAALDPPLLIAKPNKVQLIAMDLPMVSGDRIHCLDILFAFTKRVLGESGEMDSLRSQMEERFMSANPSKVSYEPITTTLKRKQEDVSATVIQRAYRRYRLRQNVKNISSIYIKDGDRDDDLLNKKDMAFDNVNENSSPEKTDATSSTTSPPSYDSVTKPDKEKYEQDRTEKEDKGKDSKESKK

Row | SMILES | IC50 (hNav1.7; Table 12, tonic block) [nM] | IC50 (hNav1.4; Table 12, tonic block) [nM] | Nav1.4/Nav1.7 (hNav1.4; Table 12) | IC50 (hNav1.7; tonic, Table 11) [nM] | IC50 (hNav1.4; tonic, Table 11) [nM] | Nav1.4/Nav1.7 (hNav1.7; ratio of PX tonic IC50 values, Table 11)
1 | C#CC[C@H](N)C(=O)N[C@@H](Cc1ccc(O)cc1)C(=O)N[C@H]1CSSC[C@@H]2NC(=O)[C@@H]3CSSC[C@@H](C(=O)N[C@@H](CCCNC(=N)N)C(=O)N[C@@H](CCCCN)C(=O)N[C@H](C(=O)N[C@H](C(N)=O)[C@@H](C)CC)[C@@H](C)CC)NC(=O)[C@H](Cc4c[nH]c5ccccc45)NC(=O)[C@H](CC(C)C)NC(=O)[C@H](CCCCN)NC(=O)[C@H](CSSC[C@H](NC(=O)[C@H]([C@@H](C)O)NC(=O)[C@H](Cc4c[nH]c5ccccc45)NC(=O)[C@H](CCCC)NC(=O)[C@H](Cc4c[nH]c5ccccc45)NC(=O)[C@H](CCCCN)NC(=O)[C@H](CCC(N)=O)NC1=O)C(=O)N[C@@H](CC(=O)O)C(=O)N[C@@H](CO)C(=O)N[C@@H](CCC(=O)O)C(=O)N[C@@H](CCCNC(=N)N)C(=O)N[C@@H](C)C(=O)N3)NC(=O)[C@H](CCCNC(=N)N)NC(=O)[C@H](CC(C)C)NC(=O)CNC(=O)[C@H](CCC(=O)O)NC2=O [compound 730] | 1.19 | 37.2 | 31 | – | – | –
2 | C#CC[C@H](N)C(=O)N[C@@H](Cc1ccc(O)cc1)C(=O)N[C@H]1CSSC[C@@H]2NC(=O)[C@@H]3CSSC[C@@H](C(=O)N[C@@H](CCCNC(=N)N)C(=O)N[C@@H](CCCCN)C(=O)N[C@H](C(=O)N[C@H](C(N)=O)[C@@H](C)CC)[C@@H](C)CC)NC(=O)[C@H](Cc4c[nH]c5ccccc45)NC(=O)[C@H](CC(C)C)NC(=O)[C@H](CCCCN)NC(=O)[C@H](CSSC[C@H](NC(=O)[C@H]([C@@H](C)O)NC(=O)[C@H](Cc4c[nH]c5ccccc45)NC(=O)[C@H](CCCC)NC(=O)[C@H](Cc4c[nH]c5ccccc45)NC(=O)[C@H](CCCCN)NC(=O)[C@H](CCC(N)=O)NC1=O)C(=O)N[C@@H](CC(=O)O)C(=O)N[C@@H](CO)C(=O)N[C@@H](CCC(=O)O)C(=O)N[C@@H](CCCNC(=N)N)C(=O)N[C@@H](C)C(=O)N3)NC(=O)[C@H](CCCNC(=N)N)NC(=O)[C@H](CC(C)C)NC(=O)CNC(=O)[C@H](CCCCN)NC2=O [compound 729] | 1.87 | 7.6 | 4 | – | – | –
3 | C#CC[C@H](N)C(=O)N[C@@H](Cc1ccc(O)cc1)C(=O)N[C@H]1CSSC[C@@H]2NC(=O)[C@@H]3CSSC[C@@H](C(=O)N[C@@H](CCCNC(=N)N)C(=O)N[C@@H](CCCCN)C(=O)N[C@@H](CCC(=O)O)C(=O)N[C@@H](CC4CCCCC4)C(N)=O)NC(=O)[C@H](Cc4c[nH]c5ccccc45)NC(=O)[C@H](CC(C)C)NC(=O)[C@H](CCCCN)NC(=O)[C@H](CSSC[C@H](NC(=O)[C@H]([C@@H](C)O)NC(=O)[C@H](Cc4c[nH]c5ccccc45)NC(=O)[C@H](CCCC)NC(=O)[C@H](Cc4c[nH]c5ccccc45)NC(=O)[C@H](CCCCN)NC(=O)[C@H](CCC(N)=O)NC1=O)C(=O)N[C@@H](CC(=O)O)C(=O)N[C@@H](CO)C(=O)N[C@@H](CCCCN)C(=O)N[C@@H](CCCNC(=N)N)C(=O)N[C@@H](C)C(=O)N3)NC(=O)[C@H](CCCNC(=N)N)NC(=O)[C@H](CC(C)C)NC(=O)CNC(=O)[C@H](CCC(=O)O)NC2=O [compound 862] | 0.593 | 36.6 | 62 | – | – | –
4 | C#CC[C@H](N)C(=O)N[C@@H](Cc1ccc(O)cc1)C(=O)N[C@H]1CSSC[C@@H]2NC(=O)[C@@H]3CSSC[C@@H](C(=O)N[C@@H](CCCNC(=N)N)C(=O)N[C@@H](CCCCN)C(=O)N[C@@H](CCC(=O)O)C(=O)N[C@@H](Cc4ccccc4)C(N)=O)NC(=O)[C@H](Cc4c[nH]c5ccccc45)NC(=O)[C@H](CC(C)C)NC(=O)[C@H](CCCCN)NC(=O)[C@H](CSSC[C@H](NC(=O)[C@H]([C@@H](C)O)NC(=O)[C@H](Cc4c[nH]c5ccccc45)NC(=O)[C@H](CCCC)NC(=O)[C@H](Cc4c[nH]c5ccccc45)NC(=O)[C@H](CCCCN)NC(=O)[C@H](CCC(N)=O)NC1=O)C(=O)N[C@@H](CC(=O)O)C(=O)N[C@@H](CO)C(=O)N[C@@H](CCCCN)C(=O)N[C@@H](CCCNC(=N)N)C(=O)N[C@@H](C)C(=O)N3)NC(=O)[C@H](CCCNC(=N)N)NC(=O)[C@H](CC(C)C)NC(=O)CNC(=O)[C@H](CCC(=O)O)NC2=O [compound 861] | 0.388 | 304 | 785 | – | – | –
5 | CC[C@H](C)[C@H](NC(=O)[C@@H](NC(=O)[C@H](CCCCN)NC(=O)[C@H](CCCNC(=N)N)NC(=O)[C@@H]1CSSC[C@@H]2NC(=O)[C@H](C)NC(=O)[C@H](CCCNC(=N)N)NC(=O)[C@H](CCCCN)NC(=O)[C@H](CO)NC(=O)[C@H](CC(=O)O)NC(=O)[C@@H]3CSSC[C@H](NC(=O)[C@H](CCCNC(=N)N)NC(=O)[C@H](CC(C)C)NC(=O)CNC(=O)[C@H](CCC(=O)O)NC(=O)[C@H](CSSC[C@H](NC(=O)[C@@H](N)Cc4ccc(O)cc4)C(=O)N[C@@H](CCC(N)=O)C(=O)N[C@@H](CCCCN)C(=O)N[C@@H](CCC(=O)O)C(=O)N[C@@H](CCSC)C(=O)N[C@@H](Cc4c[nH]c5ccccc45)C(=O)N[C@@H]([C@@H](C)O)C(=O)N3)NC2=O)C(=O)N[C@@H](CCCCN)C(=O)N[C@@H](CC(C)C)C(=O)N[C@@H](Cc2c[nH]c3ccccc23)C(=O)N1)[C@@H](C)CC)C(N)=O [compound 52] | – | – | – | > 1000 | 3.1 | –
6 | CC[C@H](C)[C@H](NC(=O)[C@@H](NC(=O)[C@H](CCC(=O)O)NC(=O)[C@H](CCCNC(=N)N)NC(=O)[C@@H]1CSSC[C@@H]2NC(=O)[C@H](C)NC(=O)[C@H](CCCNC(=N)N)NC(=O)[C@H](CCCCN)NC(=O)[C@H](CO)NC(=O)[C@H](CC(=O)O)NC(=O)[C@@H]3CSSC[C@H](NC(=O)[C@H](CCCNC(=N)N)NC(=O)[C@H](CC(C)C)NC(=O)CNC(=O)[C@H](CCC(=O)O)NC(=O)[C@H](CSSC[C@H](NC(=O)[C@@H](N)Cc4ccc(O)cc4)C(=O)N[C@@H](CCC(N)=O)C(=O)N[C@@H](CCCCN)C(=O)N[C@@H](Cc4c[nH]c5ccccc45)C(=O)N[C@@H](CCSC)C(=O)N[C@@H](Cc4c[nH]c5ccccc45)C(=O)N[C@@H]([C@@H](C)O)C(=O)N3)NC2=O)C(=O)N[C@@H](CCCCN)C(=O)N[C@@H](CC(C)C)C(=O)N[C@@H](Cc2c[nH]c3ccccc23)C(=O)N1)[C@@H](C)CC)C(N)=O [compound 68] | – | – | – | 12.3 | 324 | 26
7 | C#CC[C@H](N)C(=O)N[C@@H](Cc1ccc(O)cc1)C(=O)N[C@H]1CSSC[C@@H]2NC(=O)[C@@H]3CSSC[C@@H](C(=O)N[C@@H](CCCNC(=N)N)C(=O)N[C@@H](CCCCN)C(=O)N[C@@H](CCC(=O)O)C(=O)N[C@H](C(N)=O)[C@@H](C)CC)NC(=O)[C@H](Cc4c[nH]c5ccccc45)NC(=O)[C@H](CCCC)NC(=O)[C@H](CCCCN)NC(=O)[C@H](CSSC[C@H](NC(=O)[C@H]([C@@H](C)O)NC(=O)[C@H](Cc4c[nH]c5ccccc45)NC(=O)[C@H](CCCC)NC(=O)[C@H](Cc4c[nH]c5ccccc45)NC(=O)[C@H](CCCCN)NC(=O)[C@H](CCC(N)=O)NC1=O)C(=O)N[C@@H](CC(=O)O)C(=O)N[C@@H](CO)C(=O)N[C@@H](CCCCN)C(=O)N[C@@H](CCCNC(=N)N)C(=O)N[C@@H](C)C(=O)N3)NC(=O)[C@H](CCCNC(=N)N)NC(=O)[C@H](CC(C)C)NC(=O)CNC(=O)[C@H](CCC(=O)O)NC2=O [compound 856] | 1.72 | 102 | 59 | – | – | –
